Values after ≈ are worked out from the molar mass of the structure shown. *1 amine or outer side, *2 acyl side, *3 side chain or, on linkers, in order; H or OH if unused. Where a SMILES comes first, the peptide text is derived from it. Bridges are numbered along the chain shown (N, C = ends). [ ]: non-standard residue; d: D form. The star is where a group is joined. X1 = CC(C)=CCc1ccc(Cl)c2[nH]cc(CC(N[*:1])C(=O)[*:2])c12; Trp(7-Cl) = N[CH](Cc1c[nH]c2c(Cl)cccc12)C(=O)O; Malonyl = O=C(CC(=O)[*:2])[*:1]; Cya = N[CH](CS(=O)(=O)O)C(=O)O; dDab = NCC[C@@H](N)C(=O)O; Octanoyl = CCCCCCCC(=O)*; Orn = NCCC[C@H](N)C(=O)O; Dab = NCC[C@H](N)C(=O)O
Key:
[1] = tested on: Pseudomonas aeruginosa; assay: Antibacterial activity against MexABCDXY-deficit Pseudomonas aeruginosa measured after 16 hrs by serial dilution method; assay type: functional
[2] = tested on: Pseudomonas aeruginosa; assay: Antibacterial activity against wild-type Pseudomonas aeruginosa measured after 16 hrs by serial dilution method; assay type: functional
[3] = tested on: Escherichia coli; assay: Antibacterial activity against tolC-deficit Escherichia coli measured after 16 hrs by serial dilution method; assay type: functional
[4] = tested on: Escherichia coli; assay: Antibacterial activity against wild-type Escherichia coli measured after 16 hrs by serial dilution method; assay type: functional
[5] = tested on: Staphylococcus aureus; assay: Antibacterial activity against methicillin-resistant Staphylococcus aureus by CLSI broth dilution method; assay type: functional
[6] = tested on: Escherichia coli; assay: Antibacterial activity against Escherichia coli by agar dilution method; assay type: functional
[7] = tested on: Acinetobacter baumannii; assay: Antibacterial activity against Acinetobacter baumannii; assay type: functional
[8] = tested on: Pseudomonas aeruginosa; assay: Antibacterial activity against Pseudomonas aeruginosa; assay type: functional
[9] = tested on: Staphylococcus aureus; assay: Antibacterial activity against Staphylococcus aureus; assay type: functional
[10] = tested on: Escherichia coli; assay: Antibacterial activity against wild-type Escherichia coli; assay type: functional
[11] = tested on: Pseudomonas aeruginosa; assay: Potentiation of colistin-induced antibacterial activity against Pseudomonas aeruginosa PAO1 infected in BALB/c mouse assessed as log reduction in bacterial burden in lungs at 2.08 mg/kg, it measured after 6 hrs by serial dilution method; assay type: functional, Lung
[12] = tested on: Pseudomonas aeruginosa; assay: Antibacterial activity against Pseudomonas aeruginosa ATCC 27853 by microdilution method; assay type: functional
[13] = tested on: Pseudomonas aeruginosa; assay: Antibacterial activity against Pseudomonas aeruginosa PAO1 measured after 16 to 20 hrs by microbroth dilution assay; assay type: functional
[14] = tested on: Escherichia coli; assay: Antibacterial activity against acrAB-efflux pump deficit Escherichia coli; assay type: functional
[15] = Selectivity ratio of MIC for Staphylococcus epidermidis PAS9001 harboring SPase S29P mutant to MIC for Staphylococcus epidermidis RP62A; assay type: functional
[16] = tested on: Pseudomonas aeruginosa; assay: Antibacterial activity against Pseudomonas aeruginosa PAS2006 harboring SPase P84S mutant by CLSI microbroth dilution assay; assay type: functional
[17] = tested on: Staphylococcus epidermidis; assay: Antibacterial activity against Staphylococcus epidermidis PAS9001 harboring SPase S29P mutant by CLSI microbroth dilution assay; assay type: functional
[18] = tested on: Staphylococcus epidermidis; assay: Antibacterial activity against Staphylococcus epidermidis PAS8001 harboring SPase P29S mutant by CLSI microbroth dilution method; assay type: functional
[19] = tested on: Staphylococcus epidermidis; assay: Antibacterial activity against Staphylococcus epidermidis RP62A harboring wild-type SPase by CLSI microbroth dilution method; assay type: functional
[20] = tested on: Escherichia coli; assay: Antibacterial activity against Escherichia coli PAS0232 harboring SPase P84S mutant by CLSI microbroth dilution assay; assay type: functional
[21] = tested on: Escherichia coli; assay: Antibacterial activity against tolC-deficit Escherichia coli in presence of human serum albumin; assay type: functional
[22] = Inhibition of Escherichia coli LpxA after 15 mins by fluorescence polarization assay
[23] = Inhibition of Escherichia coli His6-tagged LpxD after 15 mins by fluorescence polarization assay
[24] = Hemolytic activity against human RBC; assay type: ADME, cell-based; settings: erythrocyte
[25] = tested on: Escherichia coli; assay: Antibacterial activity against Escherichia coli after 16 to 20 hrs by agar well diffusion method; assay type: functional

Compound: N=C(N)SCc1ccc(Cl)c(Cl)c1
- MIC [1]: 1 µg/mL (≈ 4.25 µM)
- MIC [2]: 4 µg/mL (≈ 17 µM)
- MIC [3]: > 32 µg/mL
- MIC [4]: > 32 µg/mL

Compound: CC(C)=CCc1ccc(Cl)c2[nH]cc(CC3NC(=O)C(Cc4c[nH]c5c(Cl)cccc45)NC(=O)C4CCCN4C(=O)C(CS(=O)(=O)O)NC(=O)C(NC(=O)C(NC(=O)C(C)NC(=O)CC(=O)O)C(C)C)COC(=O)C(CO)NC(=O)C(CC(C)C)NC(=O)C(C(C)C)NC3=O)c12 (configuration not stated) (Malonyl-AVS[Cya]P[Trp(7-Cl)][X1]VLS; ester 3-C; configuration not given here)
- MIC [5]: 0.5 to 128 µg/mL (≈ 0.357 to 91.4 µM)

Compound: CCC[C@@H]1OC(=O)[C@@H](C)C[C@H](C)CCCCC(=O)CCC[C@@H](CC)/C=C/C=C(\COC)CC[C@@H](O)[C@@H](O)C[C@H](O)CNC1=O
- MIC [6]: 6.25 µg/mL (≈ 10 µM)

Compound: CC[C@H](C)[C@@H]1NC(=O)[C@H](CCCNC(=N)N)NC(=O)[C@H](Cc2cc3ccccc3[nH]2)NC(=O)[C@@H]2CCCN2C(=O)[C@H]2CCCN2C(=O)[C@H](CCCNC(=N)N)NC(=O)[C@H](CCCNC(=N)N)NC(=O)[C@H](CC(C)C)NC(=O)[C@H](CCCNC(=N)N)NC(=O)[C@H](CCCCN)NC(=O)[C@H](Cc2c[nH]c3ccccc23)NC(=O)[C@@H](CCCNC(=N)N)NC(=O)[C@H]([C@@H](C)CC)NC(=O)[C@H](CCCNC(=N)N)NC1=O
- MIC [7]: 1 µg/mL (≈ 0.507 µM)
- MIC [8]: 4 µg/mL (≈ 2.03 µM)
- MIC [9]: 2 µg/mL (≈ 1.01 µM)
- MIC [10]: 0.25 µg/mL (≈ 0.127 µM)

Compound: CC[C@H](C)[C@H](NC(=O)[C@@H](N)Cc1ccccc1)C(=O)N[C@@H](CCCNC(=N)N)C(=O)N[C@@H](CC(C)C)C(N)=O (H-FIRL-NH2)
- Activity [11]: 1 log10CFU/ml

Compound: CCCC(C)/C=C(/C)C(=O)OC(CCCCCCC/C=C/C(=O)NCCC(=O)NC(CS(=O)(=O)O)C(=O)N(C)C1C(=O)NC(C)C(=O)NC(C(=O)O)Cc2ccc(OS(=O)(=O)O)c(c2)-c2cc1cc(OS(=O)(=O)O)c2OC1O[C@H](C)[C@@H](O)[C@H](O)[C@@H]1O)CCC(C)C (some centres not stated)
- MIC [5]: 16 to 128 µg/mL (≈ 11.9 to 94.9 µM)

Compound: CC[C@H](C)[C@@H]1NC(=O)[C@H](Cc2c[nH]c3ccccc23)NC(=O)[C@H]([C@@H](C)O)NC(=O)[C@@H]2CCCN2C(=O)[C@H]2CCCN2C(=O)[C@H](CO)NC(=O)[C@H](C)NC(=O)[C@H](CCN)NC(=O)[C@H](CCN)NC(=O)[C@H](Cc2c[nH]c3ccccc23)NC(=O)[C@H](CCN)NC(=O)[C@@H](CCN)NC(=O)[C@H](CCCN)NC(=O)[C@H](CCN)NC1=O [MUREPAVADIN] (cyclo(TWI[Dab][Orn][dDab][Dab]W[Dab][Dab]AS[dP]P))
- MIC [12]: 0.008 µg/mL (≈ 0.00515 µM)

Compound: C[C@@H](O)[C@H](NC(=O)c1ccc(C#Cc2ccc(CN3CCOCC3)cc2)cc1)C(=O)NO
- MIC [13]: 1 µg/mL (≈ 2.29 µM)

Compound: CCCCCCCCCC[C@H]1OC(=O)CNC(=O)[C@H]([C@@H](C)O)NC(=O)[C@H](CO)NC(=O)[C@H]([C@H](C)CC)NC(=O)[C@H](CC(C)C)N(C)C(=O)[C@@H]1C
- MIC [6]: 1.56 µg/mL (≈ 2.19 µM)

Compound: Sc1ccccc1C1=NCCCN1
- MIC [14]: 8 µg/mL (≈ 41.6 µM)
- MIC [10]: 16 µg/mL (≈ 83.2 µM)

Compound: CCCCCCCCCCCCCCCC(=O)N(C)[C@H](CO)C(=O)N[C@H](C)C(=O)NCC(=O)N(C)[C@@H]1C(=O)N[C@@H](C)C(=O)N[C@@H](C(=O)O)Cc2ccc(O)c(c2)-c2cc1ccc2O
- Ratio [15]: 32
- MIC [16]: 8 µg/mL (≈ 9.08 µM)
- MIC [17]: 8 µg/mL (≈ 9.08 µM)
- MIC [18]: 2 µg/mL (≈ 2.27 µM)
- MIC [19]: 0.25 µg/mL (≈ 0.284 µM)
- MIC [20]: 4 µg/mL (≈ 4.54 µM)

Compound: CC(C)(C)c1nc(-c2ccc3c(c2)OCCO3)c(-c2ccncc2)[nH]1
- MIC [21]: 4 µg/mL
- MIC [3]: 0.25 µg/mL (≈ 0.745 µM)
- MIC [10]: 32 µg/mL (≈ 95.4 µM)

Compound: H-TNLYMLPKWDIP-NH2
- Kd [22]: 20 µM
- Kd [23]: 6 µM

Compound: CC[C@H](C)[C@@H]1NC(=O)[C@H](Cc2c[nH]c3ccccc23)NC(=O)[C@H]([C@@H](C)O)NC(=O)[C@@H]2CCCN2C(=O)[C@H]2CCCN2C(=O)[C@H](CCN)NC(=O)[C@H](C)NC(=O)[C@H](CCN)NC(=O)[C@H](CCN)NC(=O)[C@H](Cc2c[nH]c3ccccc23)NC(=O)[C@H](CCN)NC(=O)[C@@H](CCN)NC(=O)[C@H](CCCCN)NC(=O)[C@H](CCN)NC1=O (cyclo(TWI[Dab]K[dDab][Dab]W[Dab][Dab]A[Dab][dP]P))
- Activity [24]: > 100 µg/mL

Compound: Fc1ccc(COc2cccc(-c3n[nH]cc3-c3ccncc3)c2)cc1
- MIC [21]: 16 µg/mL
- MIC [3]: < 0.063 µg/mL
- MIC [10]: 8 µg/mL (≈ 23.2 µM)

Compound: CCCCCCCC(=O)N[C@H](C(=O)N[C@@H](CO)C(=O)N[C@H]1CCNC(=O)[C@H]([C@@H](C)O)NC(=O)[C@H](CCN)NC(=O)[C@H](CCN)NC(=O)[C@H](CC(C)C)NC(=O)[C@@H](Cc2ccccc2)NC(=O)[C@H](CCN)NC1=O)[C@@H](C)O (Octanoyl-TS[Dab][Dab][dF]L[Dab][Dab]T; lactam 3-C)
- MIC90 [25]: 1 µg/mL (≈ 0.929 µM)

Compound: CCC[C@@H]1OC(=O)[C@@H](C)C[C@H](C)CCCCC(=O)CCC[C@@H](CC)CC/C=C(\COC)CC[C@@H](O)[C@@H](O)C[C@H](O)CNC1=O
- MIC [6]: 3.12 µg/mL (≈ 4.98 µM)

Compound: CC(C)(N)[C@H](NC(=O)c1ccc(C#CC#C[C@@H]2C[C@H]2CO)cc1)C(=O)NO [ACHN-975]
- MIC [12]: 0.25 µg/mL (≈ 0.677 µM)

Compound: CN(C)c1ccc(C2=NCCCN2)c(S)c1
- MIC [14]: 8 µg/mL (≈ 34 µM)
- MIC [10]: 16 µg/mL (≈ 68 µM)

From ChEMBL document CHEMBL3864123, “Drug discovery strategies to outer membrane targets in Gram-negative pathogens” (Bioorg Med Chem, 2016)
